Values of other authors in patent publication US8163753B2, “2,3-dihydro-6-nitroimidazo (2,1-b) oxazole compounds for the treatment of tuberculosis” (priority 2003, dated 2012).

System: multi-drug-resistant Mycobacterium tuberculosis
Conditions: literature report; cited from earlier work

CCC1Cn2cc([N+](=O)[O-])nc2O1 (stereo not shown) [CGI-17341]
bactericidal action to multi-drug-resistant Mycobacterium tuberculosis: has a bactericidal action
